Laboratory results: patent publication US20160124002A1, “METHOD FOR DETECTING HYPOXIA OR DIAGNOSING HYPOXIA-RELATED DISEASES” (SEOUL NATIONAL UNIVERSITY R&DB FOUNDATION, priority 2013, published 2016)

System: THP-1 cell line
Assay: Metabolites in culture medium of THP-1 cells under low oxygen with HIF-1 inhibition (LC/Q-TOF MS)
Type: cell-based, human
Conditions: THP-1 culture medium, low oxygen (1% O2)
Protocol: A THP-1 cell line, a human monocyte-derived cell line was cultured in the conditions of regular oxygen (21% oxygen), low oxygen (1% oxygen), and regular oxygen after low oxygen (reoxygenation), and then, the metabolites included in the culture media were identified and quantified using a LC/Q-TOF MS analysis as follows.
The human-derived monocyte cells (THP-1) (Korean Cell Line Bank, KCLB No. 40202) at 5×10^5 cells/4 mL medium were cultured in DMEM (Dulbecco's modified Eagle's medium) including 10% FBS (fetal bovine serum) under the condition of regular oxygen (21% O2, 5% CO2) at 37° C. for 24 hours, the condition of low oxygen (1% O2, 5% CO2) at 37° C. for 24 hours, or the condition of regular oxygen for 16 hours after low oxygen for 8 hours (reoxygenation) at 37° C.
After that, the media without the cells were isolated to obtain the samples to be analyzed. The media were subjected to a centrifugation at 3000 rpm and 4° C. to obtain supernatants only. The supernatants were then aliquoted and stored in a −70° C. cryogenic deep-freezer, and were thawed immediately before use.
In order to decrease the expression of a hypoxia-inducible factor-1 (HIF-1), a major regulator in a low oxygen environment, two types of si-HIF-1alpha (#1, 5′-CAAAGUUAAAGCAUCAGG-3′; #2, 5′-UGUACUGUCCUGUGGUGA-3′) were prepared, and then used for transfection into the cells using Lipofectamine RNA iMAX reagents (Life Technologies, USA) following the manufacturer's instruction. In addition, 2-methoxyestradiol (2ME2) and 17-N-Allylamino-17-demethoxygeldanamycin (17-AAG) used (Selleck chemicals) as the inhibitors of HIF-1 were used, and YC-1 was purchased from A.G. Scientific. The cells were treated also with 2ME2 and 17-AAG at the concentrations of 100 μM during the exposure of a low oxygen condition.
H2O (400 μl) at 4° C. and medium (100 μl) were put into a 1.5 ml micro tube so as to be diluted. After that, the sample was mixed well using a vortex, and then was filtered/centrifuged at 4° C. and 14,000 g for 20 minutes to obtain the supernatant thereof. The supernatant was collected in assay vials. In addition, for a QC (quality control) assay, the diluted samples of 50 μl from all the samples were mixed (pooling).
The samples that were prepared as described above were isolated by the system equipped with a reverse column, Zorbax SB-C18, 50×2.1 mm, 1.8 μm (Agilent Technologies, USA) in Binary Agilent 1200 series HPLC (Agilent Technologies). At this time, the assay sample in the amount of 5 μl was injected so as to pass through the column that was heated at 40° C. The metabolite sample was subjected to a gradient elution with 98% solvent A (2 mM ammonium formate and 0.1% formic acid in H2O) and 2% solvent B (0.1% formic acid in methanol) at the rate of 400 μl/min for 21 minutes. In order to avoid a cross-contamination, a blank run was performed between the sample runs.
ESI algorithm was used by coupling an Agilent 6530 quadrupole time-of-flight (Q-TOF) mass spectrometer (Agilent Technologies) with HPLC. Four centroid data per one second for one spectrum from 100 to 1100 m/z were obtained, and the m/z for all the spectra were calibrated in real time using the reference value externally supplied.
The metabolites were first identified from the mass spectra in the HMDB (http://www.hmdb.ca/) and METLIN (http://metlin.scripps.edu/) database using a software (Agilent MassHunter Qualitative Analysis (version B.05.00), Agilent Mass Profiler Professional (version B.02.02)). After that, the cleavage pattern by the LC/MS/MS assay of the corresponding metabolite was subjected to an additional confirmation work as compared to a practical standard material (Cayman, Ann Arbor, Mich., USA).
The relative concentration of the corresponding metabolites was calculated using the chromatograph area of the respective metabolite in the culture solution obtained from the corresponding cells. […]

[1] = treated with HIF-1 inhibitor (2ME2 and 17-AAG at 100 μM), FIG. 4
[2] = HIF-1 expression inhibited by si-RNA, FIG. 3

Row | Molecule | 5-HETE that was increased under the low oxygen condition (H) [1] | 5-oxoETE that was increased under the low oxygen condition (H) [1] | 5-HETE that was increased under the low oxygen condition (H) [2] | 5-oxoETE that was increased under the low oxygen condition (H) [2]
1 | COc1cc2c(cc1O)CC[C@@H]1[C@@H]2CC[C@]2(C)[C@@H](O)CC[C@@H]12 [2ME2, 2-methoxyestradiol] | decreased | decreased |  | 
2 | C=CCNC1=C2C[C@@H](C)C[C@H](OC)[C@H](O)[C@@H](C)/C=C(\C)[C@H](OC(N)=O)[C@@H](OC)/C=C\C=C(/C)C(=O)NC(=CC1=O)C2=O [17-AAG, 17-N-Allylamino-17-demethoxygeldanamycin] | decreased | decreased |  | 
3 | OCc1ccc(-c2nn(Cc3ccccc3)c3ccccc23)o1 [YC-1] | decreased | decreased |  | 
4 | si-HIF-1a#1: si-RNA against HIF-1alpha, 5′-CAAAGUUAAAGCAUCAGG-3′ (chemistry not given here) |  |  | decreased | decreased
5 | si-HIF-1a#2: si-RNA against HIF-1alpha, 5′-UGUACUGUCCUGUGGUGA-3′ (chemistry not given here) |  |  | decreased | decreased
